Data reported in PubChem BioAssay AID328 (DTP/NCI, 2004).
Where “and” joins values, the source holds several entries; their conditions need not be identical. Equal values may be shown once. Inconclusive results and toxic doses are left out.

System: BDF1 mice, P388 leukemia ip, median survival T/C
Assay: NCI In Vivo Anticancer Drug Screen. Data for tumor model P388 Leukemia (intraperitoneal) in B6D2F1 (BDF1) mice
Details: endpoint: median survival time, higher = longer survival
Procedure, shortened: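 T/C = treated-group survival ÷ vehicle-control survival; tumour transplanted into mice before dosing.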

[1] = dose: 25.0 mg/kg/injection, schedule: Q01DX009 (ip), vehicle: saline
[2] = dose: 100.0 mg/kg/injection, schedule: Q01DX009 (ip), vehicle: saline
[3] = dose: 200.0 mg/kg/injection, schedule: Q01DX009 (ip), vehicle: saline
[4] = dose: 50.0 mg/kg/injection, schedule: Q01DX009 (ip), vehicle: saline with Tween-80
[5] = dose: 100.0 mg/kg/injection, schedule: Q01DX009 (ip), vehicle: saline with Tween-80
[6] = dose: 100.0 mg/kg/injection, schedule: Q04DX003 (ip), vehicle: saline with Tween-80
[7] = dose: 200.0 mg/kg/injection, schedule: Q01DX009 (ip), vehicle: saline with Tween-80
[8] = dose: 200.0 mg/kg/injection, schedule: Q04DX003 (ip), vehicle: saline with Tween-80
[9] = dose: 400.0 mg/kg/injection, schedule: Q01DX009 (ip), vehicle: saline with Tween-80
[10] = dose: 100.0 mg/kg/injection, schedule: Q04DX003 (ip), vehicle: saline
[11] = dose: 100.0 mg/kg/injection, schedule: Q01DX009 (ip), vehicle: Klucel (hydroxypropylcellulose) (HPC)
[12] = dose: 200.0 mg/kg/injection, schedule: Q01DX009 (ip), vehicle: Klucel (hydroxypropylcellulose) (HPC)

O=C(Nc1ccccc1)c1ccc(C(F)(F)F)cc1O
T/C (dose: 16.5 mg/kg/injection, schedule: Q01DX009 (ip), vehicle: saline): 99 % of control | T/C [1]: 93 % of control | T/C (dose: 35.0 mg/kg/injection, schedule: Q01DX009 (ip), vehicle: saline): 112 % of control | T/C [2]: 108 % of control | T/C [3]: 95 % of control

COC(=O)C(CSCSC)NC(=O)/C=C/c1ccc(C)cc1 (stereo unspecified)
T/C [4]: 109 % of control | T/C [5]: 109 % of control | T/C [6]: 91 % of control | T/C [7]: 92 % of control | T/C [8]: 91 % of control | T/C [9]: 100 % of control | T/C (dose: 400.0 mg/kg/injection, schedule: Q04DX003 (ip), vehicle: saline with Tween-80): 88 % of control

CCN(CC)CCNc1ncnc2c1cnn2-c1ccc(Cl)cc1
T/C [6]: 109 % of control | T/C [8]: 109 % of control

CCC1CN2CCc3cc(OC)c(OC)cc3C2CC1C#N (stereo unspecified)
T/C (dose: 12.5 mg/kg/injection, schedule: Q01DX009 (ip), vehicle: saline with Tween-80): 89 % of control | T/C (dose: 25.0 mg/kg/injection, schedule: Q01DX009 (ip), vehicle: saline with Tween-80): 89 % of control | T/C [4]: 86 % of control

C=C(Cl)CSCCS
T/C (dose: 25.0 mg/kg/injection, schedule: Q01DX009 (ip), vehicle: acetone): 104 % of control | T/C (dose: 50.0 mg/kg/injection, schedule: Q01DX009 (ip), vehicle: acetone): 104 % of control

Cc1cc(N)on1
T/C [2]: 100 % of control | T/C [10]: 109 % of control | T/C [3]: 96 % of control | T/C (dose: 200.0 mg/kg/injection, schedule: Q04DX003 (ip), vehicle: saline): 109 % of control | T/C (dose: 400.0 mg/kg/injection, schedule: Q04DX003 (ip), vehicle: saline): 109 % of control

CC(Br)C1(c2cccc([N+](=O)[O-])c2)OCCO1 (stereo unspecified)
T/C (dose: 25.0 mg/kg/injection, schedule: Q01DX001 (ip), vehicle: Klucel (hydroxypropylcellulose) (HPC)): 100 % of control | T/C (dose: 50.0 mg/kg/injection, schedule: Q01DX001 (ip), vehicle: Klucel (hydroxypropylcellulose) (HPC)): 104 % of control | T/C (dose: 100.0 mg/kg/injection, schedule: Q01DX001 (ip), vehicle: Klucel (hydroxypropylcellulose) (HPC)): 90 % of control and 100 % of control

CCOC(=O)Nc1ccc2c(c1)/C(=N\NC(N)=S)c1ccccc1-2
T/C (dose: 0.37 mg/kg/injection, schedule: Q01DX009 (ip), vehicle: gum acacia): 120 % of control | T/C (dose: 0.75 mg/kg/injection, schedule: Q01DX009 (ip), vehicle: gum acacia): 108 % of control | T/C (dose: 1.5 mg/kg/injection, schedule: Q01DX009 (ip), vehicle: gum acacia): 96 % of control and 108 % of control | T/C (dose: 3.0 mg/kg/injection, schedule: Q04DX003 (ip), vehicle: gum acacia): 92 % of control | T/C (dose: 6.0 mg/kg/injection, schedule: Q04DX003 (ip), vehicle: gum acacia): 100 % of control | T/C (dose: 50.0 mg/kg/injection, schedule: Q01DX009 (ip), vehicle: Klucel (hydroxypropylcellulose) (HPC)): 86 % of control | T/C [11]: 90 % of control | T/C (dose: 100.0 mg/kg/injection, schedule: Q04DX003 (ip), vehicle: Klucel (hydroxypropylcellulose) (HPC)): 86 % of control | T/C (dose: 200.0 mg/kg/injection, schedule: Q01DX001 (ip), vehicle: Klucel (hydroxypropylcellulose) (HPC)): 86 % of control | T/C [12]: 100 % of control | T/C (dose: 200.0 mg/kg/injection, schedule: Q04DX003 (ip), vehicle: Klucel (hydroxypropylcellulose) (HPC)): 100 % of control | T/C (dose: 400.0 mg/kg/injection, schedule: Q04DX003 (ip), vehicle: Klucel (hydroxypropylcellulose) (HPC)): 109 % of control | T/C (dose: 400.0 mg/kg/injection, schedule: Q04DX003 (ip), vehicle: gum acacia): 100 % of control

Cc1ccc(S(=O)(=O)Nc2ccccc2)c(CC(O)(c2ccccc2)c2ccccc2)c1
T/C [4]: 90 % of control | T/C [5]: 95 % of control

CC(NC(C)(C)C)C(=O)c1cccc(Cl)c1 (stereo unspecified)
T/C (dose: 12.5 mg/kg/injection, schedule: Q01DX009 (ip), vehicle: saline): 108 % of control | T/C [1]: 112 % of control | T/C (dose: 50.0 mg/kg/injection, schedule: Q01DX009 (ip), vehicle: saline): 105 % of control

Sc1ccccc1-n1c(-c2ccccc2)ccc1-c1ccccc1
T/C [4]: 101 % of control | T/C [5]: 88 % of control | T/C [7]: 87 % of control | T/C [9]: 102 % of control

C=C1C(=O)OCC2C(C(=O)O)=CC3C(C)C(C)=CC123 (stereo unspecified)
T/C (dose: 2.5 mg/kg/injection, schedule: Q01DX009 (ip), vehicle: other): 105 % of control | T/C (dose: 5.0 mg/kg/injection, schedule: Q04DX003 (ip), vehicle: other): 117 % of control | T/C (dose: 10.0 mg/kg/injection, schedule: Q01DX009 (ip), vehicle: Klucel (hydroxypropylcellulose) (HPC)): 105 % of control and 121 % of control | T/C (dose: 10.0 mg/kg/injection, schedule: Q04DX003 (ip), vehicle: other): 111 % of control | T/C (dose: 20.0 mg/kg/injection, schedule: Q01DX009 (ip), vehicle: Klucel (hydroxypropylcellulose) (HPC)): 117 % of control and 120 % of control | T/C (dose: 20.0 mg/kg/injection, schedule: Q04DX003 (ip), vehicle: other): 124 % of control | T/C (dose: 40.0 mg/kg/injection, schedule: Q01DX009 (ip), vehicle: Klucel (hydroxypropylcellulose) (HPC)): 121 % of control | T/C (dose: 40.0 mg/kg/injection, schedule: Q04DX003 (ip), vehicle: other): 119 % of control

CCCCCCCCCCCCCCCCOc1ccccc1CNc1cc(C(F)(F)F)ccc1Cl
T/C (dose: 100.0 mg/kg/injection, schedule: Q01DX009 (ip), vehicle: other): 90 % of control | T/C (dose: 200.0 mg/kg/injection, schedule: Q01DX009 (ip), vehicle: other): 100 % of control | T/C (dose: 400.0 mg/kg/injection, schedule: Q01DX009 (ip), vehicle: other): 105 % of control

CC(=O)Oc1cc2c(cc1OC(C)=O)C(Br)CCCC2=O (stereo unspecified)
T/C (dose: 75.0 mg/kg/injection, schedule: Q04DX003 (ip), vehicle: other): 95 % of control | T/C (dose: 150.0 mg/kg/injection, schedule: Q04DX003 (ip), vehicle: other): 95 % of control | T/C (dose: 300.0 mg/kg/injection, schedule: Q04DX003 (ip), vehicle: other): 109 % of control

CS(=O)(=O)OCCCl
T/C (dose: 18.8 mg/kg/injection, schedule: Q01DX010 (ip), vehicle: saline): 105 % of control and 120 % of control | T/C (dose: 37.5 mg/kg/injection, schedule: Q01DX010 (ip), vehicle: saline): 100 % of control and 110 % of control | T/C (dose: 75.0 mg/kg/injection, schedule: Q01DX010 (ip), vehicle: saline): 100 % of control

Cc1c(NC(=O)Nc2cccc(F)c2)c(=O)n(-c2ccccc2)n1C
T/C [5]: 120 % of control | T/C [7]: 95 % of control | T/C [9]: 90 % of control

COC(=O)CC1(O)C=CC(=O)C=C1
T/C (dose: 2.0 mg/kg/injection, schedule: Q01DX009 (ip), vehicle: saline): 165 % of control | T/C (dose: 5.0 mg/kg/injection, schedule: Q01DX009 (ip), vehicle: saline): 114 % of control | T/C (dose: 10.0 mg/kg/injection, schedule: Q01DX009 (ip), vehicle: saline): 116 % of control | T/C [1]: 153 % of control

CCC[CH2][Sn]1([CH2]CCC)[N](S(=O)(=O)c2ccc(C)cc2)c2ccccc2[N]1S(=O)(=O)c1ccc(C)cc1
T/C (dose: 1.5 mg/kg/injection, schedule: Q01DX009 (ip), vehicle: Klucel (hydroxypropylcellulose) (HPC)): 91 % of control | T/C (dose: 6.0 mg/kg/injection, schedule: Q01DX009 (ip), vehicle: Klucel (hydroxypropylcellulose) (HPC)): 150 % of control | T/C (dose: 12.0 mg/kg/injection, schedule: Q01DX009 (ip), vehicle: Klucel (hydroxypropylcellulose) (HPC)): 176 % of control

Clc1nc2n[nH]nc2nc1Cl
T/C (dose: 3.13 mg/kg/injection, schedule: Q01DX009 (ip), vehicle: saline): 100 % of control | T/C (dose: 6.25 mg/kg/injection, schedule: Q01DX009 (ip), vehicle: saline): 95 % of control

CC(=O)Oc1c(C)c2c(O)c3c1C1=C(OCOC1=C(C)C3=O)C(C)=CC(C)(O)C(O)C(C)C(O)C1C(=O)OC(C(C)/C=C\C=C(C)C(=O)N2)C(C)C1O (stereo unspecified)
T/C [11]: 119 % of control | T/C [12]: 123 % of control | T/C (dose: 400.0 mg/kg/injection, schedule: Q01DX009 (ip), vehicle: Klucel (hydroxypropylcellulose) (HPC)): 110 % of control

C=CCCCCC/C=C/CCCCCC
T/C (dose: 75.0 mg/kg/injection, schedule: Q01DX010 (ip), vehicle: saline with Tween-80): 90 % of control | T/C (dose: 150.0 mg/kg/injection, schedule: Q01DX010 (ip), vehicle: saline with Tween-80): 122 % of control

OCC1CC[N-]CC1.OCC1CC[N-]CC1.[Cl][Pt+2]([Cl])([Cl])[Cl]
T/C (dose: 25.0 mg/kg/injection, schedule: Q04DX003 (ip), vehicle: saline): 104 % of control | T/C (dose: 50.0 mg/kg/injection, schedule: Q04DX003 (ip), vehicle: saline): 101 % of control | T/C [10]: 118 % of control
